Source: PubChem BioAssay (NCI)
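Protocol summary: plate cells (96-well), add compound at 5 concentrations, incubate 48 h, interpolate endpoints linearly. GI50 is the concentration that inhibits growth by half. TGI: concentration producing complete growth inhibition.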

Experiments:
Assay in all cases: NCI tumour cell line growth inhibition, 48 h
[1] = tested on: DLD-1 colon
[2] = tested on: DMS 114 small cell lung
[3] = tested on: DMS 273 small cell lung
[4] = tested on: HOP-18 NSCLC
[5] = tested on: K-562 leukemia
[6] = tested on: KM20L2 colon
[7] = tested on: M19-MEL melanoma
[8] = tested on: NCI-H522 lung
[9] = tested on: SN12C renal
[10] = tested on: SNB-78 CNS
[11] = tested on: SW-620 colon
[12] = tested on: BT-549 breast
[13] = tested on: MDA-N
[14] = tested on: T-47D breast

CC(C)(C)CI
TGI [1]: > 100 µM | TGI [2]: 48.3 µM | TGI [3]: 34.8 µM | TGI [4]: > 10 µM | TGI [5]: 58.4 µM | TGI [6]: > 100 µM | TGI [7]: 53.9 µM | TGI [8]: 45.2 µM | TGI [9]: 32.4 µM | TGI [10]: 79.4 µM | TGI [11]: 36.1 µM

COc1nc(NC2OC(CO)C(O)C(O)C2O)c(N)c(=O)[nH]1 (stereo unspecified)
TGI [1]: > 100 µM | TGI [2]: > 100 µM | TGI [3]: > 100 µM | TGI [4]: > 100 µM | TGI [5]: > 100 µM | TGI [6]: > 100 µM | TGI [7]: > 100 µM | TGI [8]: > 100 µM | TGI [9]: > 100 µM | TGI [10]: > 100 µM | TGI [11]: > 100 µM

CC1OC(CO)(n2cnc3c(N)ncnc32)C(O)C1O (stereo unspecified)
TGI [1]: > 100 µM | TGI [2]: > 100 µM | TGI [3]: > 100 µM | TGI [4]: > 100 µM | TGI [5]: > 100 µM | TGI [6]: > 100 µM | TGI [7]: > 100 µM | TGI [8]: > 100 µM | TGI [9]: > 100 µM | TGI [10]: > 100 µM | TGI [11]: > 100 µM

COC(=O)Cc1c(C2C(CC(=O)OC)c3ccccc3N2C2OC(CO)C(O)C(O)C2O)[nH]c2ccccc12 (stereo unspecified)
TGI [12]: > 100 µM | TGI [13]: > 100 µM | TGI [8]: > 100 µM | TGI [9]: > 100 µM | TGI [11]: > 100 µM

CON[N+]([O-])=NC(C)C
TGI [12]: > 100 µM | TGI [5]: > 100 µM | TGI [13]: > 100 µM | TGI [8]: > 100 µM | TGI [9]: > 100 µM | TGI [11]: > 100 µM | TGI [14]: > 100 µM

CCCCCCCCCCCCCCCCCCOc1ccccc1COP(=O)(O)OOCC[N+](C)(C)C
GI50 [12]: 1.32 µM | TGI [12]: 4.26 µM | GI50 [5]: 1.23 µM | TGI [5]: 50 µM | GI50 [8]: 1.73 µM | TGI [8]: 13.1 µM | GI50 [9]: 1.1 µM | TGI [9]: 3.17 µM | GI50 [11]: 1.43 µM | TGI [11]: 5.36 µM | GI50 [14]: 1.79 µM | TGI [14]: 11.2 µM

O=c1oc2ccccc2n1P(=O)(Oc1ccc(Cl)cc1)n1c(=O)oc2ccccc21
TGI [1]: > 100 µM | TGI [2]: > 100 µM | TGI [3]: > 100 µM | TGI [4]: > 100 µM | TGI [5]: > 100 µM | TGI [6]: > 100 µM | TGI [7]: > 100 µM | TGI [8]: > 100 µM | TGI [9]: > 100 µM | TGI [10]: > 100 µM | TGI [11]: > 100 µM

O=C1OC(c2ccccc2Br)=N/C1=C/c1ccccc1
TGI [5]: > 100 µM | TGI [13]: 49.4 µM | TGI [8]: 72.2 µM | TGI [11]: > 100 µM | TGI [14]: > 100 µM

COc1cc(N(CCCl)CCCl)ccc1/C=N\NC(=O)c1cccnc1
GI50 [12]: 20.9 µM | TGI [12]: 89.5 µM | GI50 [5]: 36.6 µM | TGI [5]: > 100 µM | GI50 [8]: 21.8 µM | TGI [8]: 65.8 µM | GI50 [9]: 30 µM | TGI [9]: > 100 µM | GI50 [11]: 30.4 µM | TGI [11]: > 100 µM | GI50 [14]: 11.4 µM | TGI [14]: > 100 µM

O=C1CCC2COc3ccc(O)c1c32 (stereo unspecified)
TGI [2]: > 100 µM | TGI [3]: > 100 µM | TGI [4]: > 100 µM | TGI [5]: > 100 µM | TGI [6]: > 100 µM | TGI [7]: > 100 µM | TGI [9]: > 100 µM | TGI [10]: > 100 µM | TGI [11]: > 100 µM

C#CCNC(=O)CC[C@@H](C)[C@H]1CC[C@H]2[C@@H]3CC[C@@H]4CC(=O)CC[C@]4(C)[C@H]3CC[C@]12C
GI50 [12]: 13.7 µM | TGI [12]: 36.7 µM | GI50 [5]: 5.19 µM | TGI [5]: 44.3 µM | GI50 [8]: 3.69 µM | TGI [8]: 16.6 µM | GI50 [9]: 13.2 µM | TGI [9]: 32.1 µM | GI50 [11]: 17.8 µM | TGI [11]: 43.7 µM | GI50 [14]: 8 µM | TGI [14]: 68.2 µM
